Assay results reported in PMC7604503, “Cyclic peptides can engage a single binding pocket through highly divergent modes” (Proceedings of the National Academy of Sciences of the …, 2020).
Where a SMILES comes first, the peptide text is derived from it. Bridges are numbered along the chain shown (N, C = ends).

Assays:
SMARCA4 = SMARCA4 (Homo sapiens, UniProt P51532); details: compound concentration 1000 nM; lower percentage control = stronger affinity
BRD2-BD2 = target: T1, BRD2-BD2 (Homo sapiens, UniProt P25440); experiment: 15N-HSQC NMR titration, CSPs fitted to 1:1 binding model; details: 15N-HSQC titration, simple 1:1 binding model; read-out: binding affinity for BRD2-BD2 from CSP data
T1 construct: human BRD2 (BD1: 65-194; BD2: 347-455); Avi tag (biotinylated); made in house; host or cells: E. coli BL21(DE3)
Source text: (G) Overlaid section of 15N-HSQC spectra of BRD2-BD2 alone (red) or in the presence of one (yellow), two (blue), or three (green) molar equivalents of Signals that undergo the greatest CSPs in the titration are labelled in the protein alone spectrum. Binding curves were derived by tracking the combined 15N/1H chemical shift perturbations of the signals undergoing the greatest CSPs. The data were fitted to a simple 1:1 Langmuir binding isotherm using Graphpad.

ATAD2B = target: T2, ATAD2B (Homo sapiens, UniProt Q9ULI0); experiment: BROMOscan competition binding assay (BromoMAX, Eurofins DiscoverX); details: for Percent Control ATAD2B: compound concentration 1000 nM, lower percentage control = stronger affinity
T2 construct: purchased Eurofins DiscoverX (BROMOscan, BromoMAX)
T2 sequence (Q9ULI0 1-1458): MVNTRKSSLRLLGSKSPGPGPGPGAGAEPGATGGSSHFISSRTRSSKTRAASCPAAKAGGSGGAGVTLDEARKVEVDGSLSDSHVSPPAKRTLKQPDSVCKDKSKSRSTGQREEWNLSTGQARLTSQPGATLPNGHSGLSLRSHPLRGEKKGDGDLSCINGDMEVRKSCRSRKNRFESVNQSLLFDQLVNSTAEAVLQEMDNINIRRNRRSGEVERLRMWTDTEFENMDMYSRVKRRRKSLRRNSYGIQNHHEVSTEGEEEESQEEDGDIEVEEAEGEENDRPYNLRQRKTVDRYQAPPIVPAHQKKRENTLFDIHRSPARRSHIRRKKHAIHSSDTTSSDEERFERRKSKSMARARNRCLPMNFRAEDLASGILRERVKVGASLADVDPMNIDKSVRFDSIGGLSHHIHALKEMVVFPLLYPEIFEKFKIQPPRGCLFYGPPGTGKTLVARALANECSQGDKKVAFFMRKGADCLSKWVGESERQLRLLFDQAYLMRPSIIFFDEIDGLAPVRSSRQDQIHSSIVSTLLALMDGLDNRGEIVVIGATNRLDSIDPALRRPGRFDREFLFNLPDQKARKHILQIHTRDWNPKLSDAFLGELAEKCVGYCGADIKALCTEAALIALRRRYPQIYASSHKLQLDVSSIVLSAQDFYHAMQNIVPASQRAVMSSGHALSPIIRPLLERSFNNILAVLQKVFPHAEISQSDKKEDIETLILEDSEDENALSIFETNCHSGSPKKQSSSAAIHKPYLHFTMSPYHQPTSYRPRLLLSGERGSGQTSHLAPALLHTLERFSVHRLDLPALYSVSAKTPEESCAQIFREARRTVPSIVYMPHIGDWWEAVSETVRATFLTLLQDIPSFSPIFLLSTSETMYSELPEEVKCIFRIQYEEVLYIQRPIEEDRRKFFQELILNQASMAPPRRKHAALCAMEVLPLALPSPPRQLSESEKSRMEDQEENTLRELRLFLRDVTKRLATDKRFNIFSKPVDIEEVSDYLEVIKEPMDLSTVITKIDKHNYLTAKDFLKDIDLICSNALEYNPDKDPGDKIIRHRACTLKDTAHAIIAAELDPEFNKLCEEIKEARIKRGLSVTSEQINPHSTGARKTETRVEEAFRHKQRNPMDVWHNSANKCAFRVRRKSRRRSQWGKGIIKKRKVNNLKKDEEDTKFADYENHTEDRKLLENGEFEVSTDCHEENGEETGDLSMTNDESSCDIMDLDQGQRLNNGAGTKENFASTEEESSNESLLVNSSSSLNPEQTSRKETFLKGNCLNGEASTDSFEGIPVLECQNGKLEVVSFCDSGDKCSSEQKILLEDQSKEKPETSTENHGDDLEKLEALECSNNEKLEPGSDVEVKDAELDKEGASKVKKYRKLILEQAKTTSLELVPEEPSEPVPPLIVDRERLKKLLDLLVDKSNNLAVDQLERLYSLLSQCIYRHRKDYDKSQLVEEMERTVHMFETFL

TRIM33(PHD,Bromo.) = experiment: as above; set-up: species or system human; details: compound concentration 1000 nM; lower percentage control = stronger affinity
[1] = test system: other BD families (non-BET BDs); experiment: BROMOscan competition binding assay, stated for the non-BET bromodomains together; set-up: species or system human; details: peptide concentration 1 μM
Source text: Again, remarkable specificity was observed.

[2] = test system: BD1 domains (BRD2-BD1, BRD3-BD1, BRD4-BD1); experiment: SPR binding, stated for the BD1 domains together; set-up: species or system human
Method: We next assessed the ability of each of the three lead peptides to bind BRD3-BD1. […] To assess selectivity for other BET BDs, we used SPR to determine the binding affinity of each peptide toward the remaining BDs from BRD2, BRD3, and BRD4 (Fig. 1B). […]
Peptides were synthesised as C-terminal amides using standard fluorenylmethyloxycarbonyl (Fmoc)-strategy solid-phase chemistry using a Syro I automated synthesiser (Biotage) and NovaPEG Rink Amide resin (Novabiochem). Couplings were performed with HBTU/HOBt (1:1) and 6 equivalents of each amino acid. Double couplings were performed for arginine residues.
Following the final amino acid coupling reaction, the Fmoc group was removed and resin incubated with N-(chloroacetoxy)succinimide (0.2 M in DMF, 1 h, RT). Resin was washed with DMF (5 times) and DCM (5 times) and dried in vacuo.
Linear peptides were cleaved from the resin by incubation (3 h, RT) with a trifluoroacetic acid (TFA) cleavage cocktail (TFA/2,2’-(ethylenedioxy)diethanethiol/triisopropyl silane/H2O (92.5:2.5:2.5:2.5)) before filtration, concentration in vacuo and precipitation with ice-cold diethyl ether. Crude peptides were washed with diethyl ether (5 times), dried and resuspended in DMSO. The pH was raised to >8 using triethylamine to allow cyclisation. Following incubation (1 h, RT), peptides were re-acidified with TFA for purification.
Crude peptides were purified by reverse-phase high-performance liquid chromatography using a Chromolith Prep column (Merck) on a Prominence LC-20AP system (Shimadzu) (Solvent A: 0.1% TFA in H2O, Solvent B: 0.1% TFA in acetonitrile) to >95% purity as determined by mass spectrometry (Fig. S17). Purified peptides were reconstituted in DMSO and concentrations determined from their absorbance at 280 nm in 5% DMSO using predicted extinction coefficients.
Surface plasmon resonance (SPR)
Measurements were conducted on a T200 or S200 (GE Healthcare) and data analysed using the Biacore Insight Evaluation Software. Experiments were performed at 4 °C in single cycle kinetics mode. Biotinylated BET bromodomains were immobilised on a CAP chip (GE Healthcare) with a […]
pH 7.5 was used as the running buffer. […]

BRD3(1) = target: T3, BRD3(1) (Homo sapiens, UniProt Q15059); experiment: BROMOscan competition binding assay (BromoMAX, Eurofins DiscoverX); details: for Percent Control BRD3(1): compound concentration 1000 nM, lower percentage control = stronger affinity
T3 construct: BRD3(1); purchased Eurofins DiscoverX (BROMOscan, BromoMAX)
T3 sequence (Q15059 24-144 limits assumed): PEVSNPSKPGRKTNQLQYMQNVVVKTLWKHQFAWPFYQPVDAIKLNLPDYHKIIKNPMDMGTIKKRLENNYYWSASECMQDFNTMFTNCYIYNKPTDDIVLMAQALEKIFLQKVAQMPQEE

Sequence of SMARCA4 (P51532 whole entry): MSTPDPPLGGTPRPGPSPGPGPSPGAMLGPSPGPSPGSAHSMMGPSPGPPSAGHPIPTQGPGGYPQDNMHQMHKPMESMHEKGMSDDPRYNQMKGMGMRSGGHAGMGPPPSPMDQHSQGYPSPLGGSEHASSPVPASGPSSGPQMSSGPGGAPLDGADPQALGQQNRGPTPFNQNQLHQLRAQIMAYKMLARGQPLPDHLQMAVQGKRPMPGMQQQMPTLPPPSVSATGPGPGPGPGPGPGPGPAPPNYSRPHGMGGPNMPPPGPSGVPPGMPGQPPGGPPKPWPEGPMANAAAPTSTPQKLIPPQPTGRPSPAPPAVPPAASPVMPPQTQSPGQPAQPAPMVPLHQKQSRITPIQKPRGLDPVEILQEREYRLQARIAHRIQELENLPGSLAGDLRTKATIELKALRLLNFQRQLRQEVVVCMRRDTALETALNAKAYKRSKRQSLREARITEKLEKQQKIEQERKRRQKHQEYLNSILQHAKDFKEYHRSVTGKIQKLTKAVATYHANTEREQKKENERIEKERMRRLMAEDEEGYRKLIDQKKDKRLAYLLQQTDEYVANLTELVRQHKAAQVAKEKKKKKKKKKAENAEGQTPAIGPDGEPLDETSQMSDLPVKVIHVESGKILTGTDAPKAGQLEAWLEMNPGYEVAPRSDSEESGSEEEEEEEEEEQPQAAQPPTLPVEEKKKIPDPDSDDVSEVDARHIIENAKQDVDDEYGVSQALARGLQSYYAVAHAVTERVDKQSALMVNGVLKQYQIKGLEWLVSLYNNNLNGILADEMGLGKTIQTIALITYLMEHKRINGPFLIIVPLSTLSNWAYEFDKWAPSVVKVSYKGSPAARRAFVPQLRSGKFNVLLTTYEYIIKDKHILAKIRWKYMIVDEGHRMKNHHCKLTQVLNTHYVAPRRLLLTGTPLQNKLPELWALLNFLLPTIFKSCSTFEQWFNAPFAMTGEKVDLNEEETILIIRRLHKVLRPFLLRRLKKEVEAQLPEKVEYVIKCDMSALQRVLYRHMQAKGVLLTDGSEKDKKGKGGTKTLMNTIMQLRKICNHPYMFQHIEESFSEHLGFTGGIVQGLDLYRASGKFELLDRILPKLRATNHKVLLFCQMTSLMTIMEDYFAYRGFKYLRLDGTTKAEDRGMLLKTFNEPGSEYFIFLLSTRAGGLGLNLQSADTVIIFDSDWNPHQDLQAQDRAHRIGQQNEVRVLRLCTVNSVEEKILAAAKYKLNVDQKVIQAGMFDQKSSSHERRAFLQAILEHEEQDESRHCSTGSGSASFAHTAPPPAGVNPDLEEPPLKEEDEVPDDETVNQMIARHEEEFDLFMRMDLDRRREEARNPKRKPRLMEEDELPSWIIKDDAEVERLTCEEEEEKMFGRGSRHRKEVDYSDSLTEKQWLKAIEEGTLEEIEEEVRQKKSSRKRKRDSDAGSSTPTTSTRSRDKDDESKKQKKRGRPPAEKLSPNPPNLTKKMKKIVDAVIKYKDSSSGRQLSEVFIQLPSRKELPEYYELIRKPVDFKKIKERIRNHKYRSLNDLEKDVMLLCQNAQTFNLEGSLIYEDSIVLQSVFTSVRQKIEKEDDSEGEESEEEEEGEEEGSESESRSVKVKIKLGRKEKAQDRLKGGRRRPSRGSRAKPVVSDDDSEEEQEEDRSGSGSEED
T1 sequence (P25440 347-455): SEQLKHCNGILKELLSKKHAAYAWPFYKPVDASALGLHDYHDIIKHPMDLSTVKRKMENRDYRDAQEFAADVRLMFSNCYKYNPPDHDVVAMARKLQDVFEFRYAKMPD

SMILES	Percent Control SMARCA4 (SMARCA4) [%]	Kd (BRD2-BD2) [µM]	Percent Control ATAD2B (ATAD2B) [%]	Percent Control TRIM33(PHD,Bromo.) (TRIM33(PHD,Bromo.)) [%]	binding to other (non-BET) BD families (in words) [1]	affinity for BRD2-BD1 and BRD4-BD1 within a factor of the affinity for BRD3-BD1 [2] [factor]	Percent Control BRD3(1) (BRD3(1)) [%]	percent of control binding at 1 µM (ATAD2B) [%]	remaining binding at 1 µM (BRD3(1); read-out: Percent Control BRD3(1)) [%]
CC[C@H](C)[C@@H]1NC(=O)[C@H]([C@@H](C)O)NC(=O)[C@H](CCCCN)NC(=O)[C@H](Cc2c[nH]c3ccccc23)NC(=O)CSC[C@@H](C(N)=O)NC(=O)[C@H](CCC(N)=O)NC(=O)[C@H](CCCCNC(C)=O)NC(=O)[C@H]([C@@H](C)O)NC(=O)[C@H](CCCNC(=N)N)NC(=O)[C@H](Cc2c[nH]c3ccccc23)NC(=O)[C@H]([C@@H](C)O)NC(=O)[C@H](CCCCNC(C)=O)NC(=O)CNC(=O)[C@H](CCCCNC(C)=O)NC1=O [3.1B] ({CH2CO}-WKTIK(Ac)GK(Ac)TWRTK(Ac)QC-NH2; thioether N-14)	77	~300	100	100	almost no binding	2 to 4	1.4		
CC[C@H](C)[C@@H]1NC(=O)[C@H](Cc2c[nH]c3ccccc23)NC(=O)[C@H](Cc2c[nH]c3ccccc23)NC(=O)CSC[C@@H](C(N)=O)NC(=O)CNC(=O)[C@H](CCCCNC(C)=O)NC(=O)[C@H](CCCCN)NC(=O)[C@H](C(C)C)NC(=O)[C@H](CCCCNC(C)=O)NC(=O)[C@@H]2CCCN2C(=O)[C@H]([C@@H](C)CC)NC1=O [3.1C] ({CH2CO}-WWIIPK(Ac)VKK(Ac)GC-NH2; thioether N-11)	87		100	100	almost no binding	2 to 4	0		
CC[C@H](C)[C@H](NC(=O)[C@H](CCCNC(=N)N)NC(=O)[C@H](CCCCNC(C)=O)NC(=O)[C@H](CCCNC(=N)N)NC(=O)[C@H](CC(C)C)NC(=O)[C@@H]1CSCC(=O)N[C@@H](Cc2c[nH]c3ccccc23)C(=O)N[C@@H](CCCCNC(C)=O)C(=O)NCC(=O)N[C@@H](Cc2ccc(O)cc2)C(=O)N[C@@H](CC(C)C)C(=O)N1)C(=O)N[C@@H](CCC(N)=O)C(=O)N[C@@H](CCCNC(=N)N)C(=O)N[C@H](C(=O)N[C@@H](Cc1ccc(O)cc1)C(=O)N[C@@H](CC(N)=O)C(N)=O)[C@@H](C)O [4.2C] ({CH2CO}-WK(Ac)GYLCLRK(Ac)RIQRTYN-NH2; thioether N-6)				100				100	100
